Source: US11739098B2 (BRISTOL-MYERS SQUIBB COMPANY, priority 2017, dated 2023)

What was measured:
Format in all cases: cell-based
human TLR8 = biological target: T1, human TLR8 (Homo sapiens, UniProt Q9NR97); experiment: TLR8 inhibition reporter assay (HEK-Blue cells, SEAP reporter, R848 stimulation); settings: HEK-Blue cells overexpressing human TLR8, SEAP reporter, R848 15.9 μM
T1 construct: host or cells: HEK-Blue cells (HEK293-derived reporter line)
T1 sequence (Q9NR97 27-1041): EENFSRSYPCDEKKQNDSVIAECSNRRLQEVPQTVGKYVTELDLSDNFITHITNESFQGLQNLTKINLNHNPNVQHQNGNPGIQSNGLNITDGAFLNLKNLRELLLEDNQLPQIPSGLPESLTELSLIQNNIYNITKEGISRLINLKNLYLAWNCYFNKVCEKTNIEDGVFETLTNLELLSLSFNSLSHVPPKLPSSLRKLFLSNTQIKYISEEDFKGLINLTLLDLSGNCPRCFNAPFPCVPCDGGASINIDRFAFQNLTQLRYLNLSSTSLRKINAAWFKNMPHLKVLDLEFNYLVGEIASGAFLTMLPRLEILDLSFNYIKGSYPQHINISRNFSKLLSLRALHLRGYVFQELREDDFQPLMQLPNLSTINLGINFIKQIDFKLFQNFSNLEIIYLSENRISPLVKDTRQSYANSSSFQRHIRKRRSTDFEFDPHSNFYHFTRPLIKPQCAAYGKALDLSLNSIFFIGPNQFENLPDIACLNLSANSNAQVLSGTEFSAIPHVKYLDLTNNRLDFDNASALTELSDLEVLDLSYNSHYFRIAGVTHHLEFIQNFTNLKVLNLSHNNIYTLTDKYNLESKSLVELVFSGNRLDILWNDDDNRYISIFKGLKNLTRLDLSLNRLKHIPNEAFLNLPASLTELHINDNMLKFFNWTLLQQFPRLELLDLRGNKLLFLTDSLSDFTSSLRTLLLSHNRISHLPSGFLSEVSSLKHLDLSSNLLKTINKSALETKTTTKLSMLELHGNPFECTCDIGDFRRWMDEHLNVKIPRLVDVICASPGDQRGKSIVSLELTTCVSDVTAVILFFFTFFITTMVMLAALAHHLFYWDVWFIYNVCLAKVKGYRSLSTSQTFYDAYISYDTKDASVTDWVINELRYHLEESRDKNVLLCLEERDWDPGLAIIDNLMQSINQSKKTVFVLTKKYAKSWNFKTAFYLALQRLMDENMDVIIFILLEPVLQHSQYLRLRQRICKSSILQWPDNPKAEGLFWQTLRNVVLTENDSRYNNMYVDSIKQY
Summary of the method: (§1)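 Percent inhibition of agonist-induced SEAP secretion in HEK-Blue cells after 22 h at 37 °C. Stimuli: 7.5 μM gardiquimod, 15.9 μM R848, 5 nM ODN2006 for TLR7, TLR8 and TLR9, added after 30 min compound exposure over a 0.05 nM–50 μM range.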

human TLR9 = biological target: T2, human TLR9 (Homo sapiens, UniProt Q9NR96); experiment: TLR9 inhibition reporter assay (HEK-Blue cells, SEAP reporter, ODN2006 stimulation); settings: HEK-Blue cells overexpressing human TLR9, SEAP reporter, ODN2006 5 nM
T2 construct: host or cells: HEK-Blue cells (HEK293-derived reporter line)
T2 sequence (Q9NR96 26-1032): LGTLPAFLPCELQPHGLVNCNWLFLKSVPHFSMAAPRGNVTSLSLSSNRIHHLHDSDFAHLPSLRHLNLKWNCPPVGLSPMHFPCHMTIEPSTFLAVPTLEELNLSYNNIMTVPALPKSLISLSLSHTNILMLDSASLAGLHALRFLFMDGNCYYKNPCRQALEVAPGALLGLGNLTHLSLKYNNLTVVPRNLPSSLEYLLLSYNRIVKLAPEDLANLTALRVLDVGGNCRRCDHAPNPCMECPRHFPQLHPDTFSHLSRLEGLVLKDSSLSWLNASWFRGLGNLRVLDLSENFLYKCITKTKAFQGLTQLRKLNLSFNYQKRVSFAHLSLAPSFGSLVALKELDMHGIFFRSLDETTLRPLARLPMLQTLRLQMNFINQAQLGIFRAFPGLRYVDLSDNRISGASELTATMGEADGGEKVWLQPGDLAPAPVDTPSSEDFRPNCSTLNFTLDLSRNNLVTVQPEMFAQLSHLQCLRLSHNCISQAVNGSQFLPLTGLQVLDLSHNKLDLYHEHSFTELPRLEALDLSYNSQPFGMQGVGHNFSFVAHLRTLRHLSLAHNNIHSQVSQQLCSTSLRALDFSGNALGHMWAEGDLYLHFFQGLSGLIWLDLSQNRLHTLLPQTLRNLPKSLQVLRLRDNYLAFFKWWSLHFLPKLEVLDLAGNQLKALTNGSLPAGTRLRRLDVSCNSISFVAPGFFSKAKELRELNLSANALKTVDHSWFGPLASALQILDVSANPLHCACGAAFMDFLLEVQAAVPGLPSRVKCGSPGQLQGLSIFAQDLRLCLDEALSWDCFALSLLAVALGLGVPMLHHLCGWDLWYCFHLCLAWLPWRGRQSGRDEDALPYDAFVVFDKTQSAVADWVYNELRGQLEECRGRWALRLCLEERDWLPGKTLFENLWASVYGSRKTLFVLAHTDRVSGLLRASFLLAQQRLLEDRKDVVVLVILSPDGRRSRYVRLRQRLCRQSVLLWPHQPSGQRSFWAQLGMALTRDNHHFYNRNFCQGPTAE
Summary of the method: as §1

human TLR7 = biological target: T3, human TLR7 (Homo sapiens, UniProt Q9NYK1); experiment: TLR7 inhibition reporter assay (HEK-Blue cells, SEAP reporter, gardiquimod stimulation); settings: HEK-Blue cells overexpressing human TLR7, SEAP reporter, gardiquimod 7.5 μM
T3 construct: host or cells: HEK-Blue cells (HEK293-derived reporter line)
T3 sequence (Q9NYK1 27-1049): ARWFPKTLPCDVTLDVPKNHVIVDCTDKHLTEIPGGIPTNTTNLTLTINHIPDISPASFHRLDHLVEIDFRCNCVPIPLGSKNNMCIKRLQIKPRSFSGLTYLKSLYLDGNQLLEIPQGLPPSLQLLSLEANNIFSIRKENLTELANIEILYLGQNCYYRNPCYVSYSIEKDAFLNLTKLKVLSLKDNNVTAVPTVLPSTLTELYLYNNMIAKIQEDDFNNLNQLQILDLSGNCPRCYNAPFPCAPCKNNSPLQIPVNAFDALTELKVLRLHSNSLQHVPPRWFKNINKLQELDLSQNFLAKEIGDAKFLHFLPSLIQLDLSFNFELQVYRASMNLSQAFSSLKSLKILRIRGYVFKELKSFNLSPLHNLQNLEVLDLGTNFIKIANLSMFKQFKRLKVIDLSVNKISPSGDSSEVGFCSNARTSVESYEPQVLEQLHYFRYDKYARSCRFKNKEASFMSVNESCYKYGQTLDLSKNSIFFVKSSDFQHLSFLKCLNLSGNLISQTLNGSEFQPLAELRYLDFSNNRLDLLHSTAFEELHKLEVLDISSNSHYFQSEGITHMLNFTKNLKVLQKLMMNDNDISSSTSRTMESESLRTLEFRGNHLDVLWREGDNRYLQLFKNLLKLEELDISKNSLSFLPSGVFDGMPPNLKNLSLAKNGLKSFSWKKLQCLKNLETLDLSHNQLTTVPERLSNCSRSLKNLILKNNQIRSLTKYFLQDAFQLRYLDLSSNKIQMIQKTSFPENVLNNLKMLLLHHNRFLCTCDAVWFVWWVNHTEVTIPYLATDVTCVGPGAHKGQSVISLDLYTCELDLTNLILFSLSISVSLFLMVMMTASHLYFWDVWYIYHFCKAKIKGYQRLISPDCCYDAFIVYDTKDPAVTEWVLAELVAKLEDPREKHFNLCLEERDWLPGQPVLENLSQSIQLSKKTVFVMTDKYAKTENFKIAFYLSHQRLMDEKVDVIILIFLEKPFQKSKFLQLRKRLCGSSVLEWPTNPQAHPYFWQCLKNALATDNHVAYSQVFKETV
Summary of the method: as §1

| Structure (SMILES) | IC50 (human TLR8) [nM] | IC50 (human TLR9) [nM] | IC50 (human TLR7) [nM] |
| --- | --- | --- | --- |
| CNCCN1CCC(c2ccc3[nH]c(-c4ccnc5[nH]ncc45)c(C(C)C)c3c2)C(F)C1 (stereo not drawn) [Example 679, 2-(3-fluoro-4-(3-isopropyl-2-(1H-pyrazolo[3,4-b]pyridin-4-yl)-1H-indol-5-yl)piperidin-1-yl)-N-methylethan-1-amine] | < 100 | 100 to 1000 | < 100 |
| Cc1cc(-c2[nH]c3ccc(C4CCN(CCS(C)(=O)=O)CC4)cc3c2C(C)C)cn2nncc12 [Example 785, 6-(3-isopropyl-5-(1-(2-(methylsulfonyl)ethyl)piperidin-4-yl)-1H-indol-2-yl)-4-methyl-[1,2,3]triazolo[1,5-a]pyridine] | 100 to 1000 | 1000 to 50000 | 1000 to 50000 |
| CC(C)c1c(-c2ccnc3[nH]ncc23)[nH]c2ccc(C3CCN(Cc4cnccn4)CC3)cc12 [Example 903, 4-(3-isopropyl-5-(1-(pyrazin-2-ylmethyl)piperidin-4-yl)-1H-indol-2-yl)-1H-pyrazolo[3,4-b]pyridine] | < 100 | 1000 to 50000 | < 100 |
| CNC(=O)CN1CCC(c2ccc3[nH]c(-c4ccn5nnc(C)c5c4)c(C(C)C)c3c2)CC1 [Example 319, 2-(4-(3-isopropyl-2-(3-methyl-[1,2,3]triazolo[1,5-a]pyridin-5-yl)-1H-indol-5-yl)piperidin-1-yl)-N-methylacetamide] | < 100 | 1000 to 50000 | < 100 |
| Cc1cc(-c2[nH]c3ccc(C4CCN(CC#N)CC4)cc3c2C(C)C)cn2ccnc12 [Example 951, 2-(4-(3-isopropyl-2-(8-methylimidazo[1,2-a]pyridin-6-yl)-1H-indol-5-yl)piperidin-1-yl)acetonitrile] | < 100 | 100 to 1000 | < 100 |
| Cc1cccc2cc(CN3CCC(c4ccc5[nH]c(-c6ccnc7[nH]ncc67)c(C(C)C)c5c4)CC3)c(Cl)nc12 [Example 922, 2-chloro-3-((4-(3-isopropyl-2-(1H-pyrazolo[3,4-b]pyridin-4-yl)-1H-indol-5-yl)piperidin-1-yl)methyl)-8-methylquinoline] | 1000 to 50000 | 1000 to 50000 | 1000 to 50000 |
| Cc1c(-c2ccnc3[nH]cc(-c4ccccc4)c23)[nH]c2ccc(C3CCNCC3)cc12 [Example 223, 4-(3-methyl-5-(piperidin-4-yl)-1H-indol-2-yl)-3-phenyl-1H-pyrrolo[2,3-b]pyridine] | 1000 to 50000 | 100 to 1000 | 1000 to 50000 |
| Cc1ccc(-c2[nH]c3ccc(C4CCN(C(=O)CN(C)C)CC4)cc3c2C(C)C)c2ncnn12 [Example 516, 2-(dimethylamino)-1-(4-(3-isopropyl-2-(5-methyl-[1,2,4]triazolo[1,5-a]pyridin-8-yl)-1H-indol-5-yl)piperidin-1-yl)ethan-1-one] | < 100 | 1000 to 50000 | < 100 |
| CC(C)c1c(-c2ccnc3[nH]ncc23)[nH]c2cc(C(F)(F)F)c(C3CCN(CC4CCN(C(C)C)C4)CC3)cc12 (stereo not drawn) [Example 854, 4-(3-isopropyl-5-(1-((1-isopropylpyrrolidin-3-yl)methyl)piperidin-4-yl)-6-(trifluoromethyl)-1H-indol-2-yl)-1H-pyrazolo[3,4-b]pyridine] | 100 to 1000 | 100 to 1000 | < 100 |
| CC(C)c1c(-c2ncnn3cccc23)[nH]c2ccc(C3CCNCC3)cc12 [Example 191, 4-(3-isopropyl-5-(piperidin-4-yl)-1H-indol-2-yl)pyrrolo[2,1-f][1,2,4]triazine] | 100 to 1000 | 100 to 1000 | 100 to 1000 |
| CNC(=O)CN1CCC(c2ccc3[nH]c(-c4cc(Cl)c5ncccc5c4)c(C(C)C)c3c2)CC1 [Example 381, 2-(4-(2-(8-chloroquinolin-6-yl)-3-isopropyl-1H-indol-5-yl)piperidin-1-yl)-N-methylacetamide] | 100 to 1000 | 1000 to 50000 | < 100 |
| CC(C)c1c(-c2coc3cccnc23)[nH]c2ccc(C3CCNCC3)cc12 [Example 20, 3-(3-isopropyl-5-(piperidin-4-yl)-1H-indol-2-yl)furo[3,2-b] pyridine] | > 3130 | 1000 to 50000 | > 3130 |
| Cc1c(-c2ccnc3[nH]ccc23)[nH]c2ccc(C3CCNCC3)cc12 [Example 2, 4-(3-methyl-5-(piperidin-4-yl)-1H-indol-2-yl)-1H-pyrrolo[2,3-b]pyridine] | < 100 | 1000 to 50000 | < 100 |
| Cc1cc(-c2[nH]c3ccc(C4CCNCC4)cc3c2C(C)C)cn2c(C(N)=O)cnc12 [Example 261, 6-(3-isopropyl-5-(piperidin-4-yl)-1H-indol-2-yl)-8-methylimidazo[1,2-a]pyridine-3-carboxamide] | 100 to 1000 | 1000 to 50000 | < 100 |
| CC(C)c1c(-c2ccnc3[nH]ncc23)[nH]c2ccc(C3CCN(C(=O)CNCC(C)(C)C)CC3)cc12 [Example 589, 1-(4-(3-isopropyl-2-(1H-pyrazolo[3,4-b]pyridin-4-yl)-1H-indol-5-yl)piperidin-1-yl)-2-(neopentylamino)ethan-1-one] | < 100 | 1000 to 50000 | < 100 |
